Patent publication US20200278355A1, “CONJUGATED PROTEINS AND USES THEREOF” (THE SCRIPPS RESEARCH INSTITUTE, priority 2017, published 2020)

What was measured:
TXNDC12 = target: T1, TXNDC12 (Homo sapiens, UniProt O95881); assay: isoTOP-ABPP of compound-treated H460 cells: TXNDC12; type: cell-based; details: TXNDC12 C66; 40 μM
T1 construct: endogenous in cells; host or cells: H460
Experimental: For analysis of NR0B1 ligands or control compound reactivity, H460 cells or H460 cells expressing luciferase in a 10 cm plate were incubated with indicated compounds in serum/dye-free RPMI for 3 hours at 37° C. Cells were washed once ice-cold PBS and lysed in 1% Triton X-100 dissolved in PBS with protease inhibitors (Sigma) by sonication. Samples were clarified by centrifugation for 10 min at 16,000×g. Lysate was adjusted to 1.5 mg ml^−1 in 500 μL.
Samples were labeled for 1 h at ambient temperature with 100 μM iodoacetamide alkyne (1, IA-alkyne, 5 μL of 10 mM stock in DMSO). Samples were conjugated by copper-catalyzed azide-alkyne cycloaddition (CuAAC) to isotopically labeled, TEV-cleavable tags (TEV-tags). Heavy CuAAC reaction mixtures was added to the DMSO-treated or shGFP control samples and light CuAAC reaction mixture was added to compound-treated or shNRF2 samples. The CuAAC reaction mixture consisted of TEV tags (light or heavy, 10 μL of 5 mM stocks in DMSO, final concentration=100 μM), 1 mM tris(2-carboxyethyl)phosphine hydrochloride (TCEP; fresh 50× stock in water, final concentration=1 mM), ligand (17× stock in DMSO:t-butanol 1:4, final concentration=100 μM) and 1 mM CuSO4 (50× stock in water, final concentration=1 mM). The samples were allowed to react for 1 h at which point the samples were centrifuged (16,000×g, 5 min, 4° C.). […]

PTGES2 = target: T2, PTGES2 (Homo sapiens, UniProt Q9H7Z7); assay: ABPP-SILAC BPK-29yne competition in H460 cells: PTGES2; type: cell-based; details: 20 μM
T2 construct: Isotopically labeled H460 cell lines were generated as described above; endogenous in cells; host or cells: H460 (SILAC-labelled)
T2 sequence (Q9H7Z7 whole entry): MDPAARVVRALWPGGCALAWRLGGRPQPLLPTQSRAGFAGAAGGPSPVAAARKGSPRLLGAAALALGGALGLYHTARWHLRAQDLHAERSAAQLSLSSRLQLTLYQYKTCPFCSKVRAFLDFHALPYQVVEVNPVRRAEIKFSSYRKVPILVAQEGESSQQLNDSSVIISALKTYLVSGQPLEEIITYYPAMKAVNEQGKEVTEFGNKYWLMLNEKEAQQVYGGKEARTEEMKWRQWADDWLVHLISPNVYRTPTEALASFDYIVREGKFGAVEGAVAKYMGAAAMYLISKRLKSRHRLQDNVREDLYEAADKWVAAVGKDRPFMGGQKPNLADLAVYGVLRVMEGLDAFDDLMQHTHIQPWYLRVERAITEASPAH
Experimental: Isotopically labeled H460 cell lines were generated as described above. Light and heavy cells were treated with compounds (20 μM) or DMSO, respectively, for 3 h, followed by labeling with the BPK-29yne (5 μM) for 30 min. Cells were washed once ice-cold PBS and lysed in 1% Triton 100-X dissolved in PBS with protease inhibitors (Sigma) by sonication. Lysate was adjusted to 1.5 mg ml^−1 in 500 μL. Samples were conjugated by CuAAC to Biotin-PEG4-azide (5 μL of 10 mM stocks in DMSO, final concentration=100 μM). CuAAC “click” mix contained TCEP, TBTA ligand and CuSO4 as detailed for isoTOP-ABPP sample preparation. Samples were further processed as detailed in: isoTOP-ABPP streptavidin enrichment and isoTOP-ABPP trypsin TEV digestion with the following exception: after overnight incubation at 37° C. with trypsin, tryptic digests were separated from the beads with Micro Bio-Spin columns (Bio-Rad) by centrifugation (1,000×g, 1 min). Beads were rinsed once with water (200 μL) and combined with tryptic digests. […]
The MS2 spectra data were extracted and searched using RAW Convertor and ProLuCID algorithm as described in isoTOP-ABPP peptide and protein quantification. […] Ratios of heavy/light (DMSO/test compound) peaks were calculated using in-house CIMAGE software. […] The mean R values and standard deviation for multiple biological experiments were calculated from the average ratios from each replicate. […]

T1 sequence (O95881 27-172): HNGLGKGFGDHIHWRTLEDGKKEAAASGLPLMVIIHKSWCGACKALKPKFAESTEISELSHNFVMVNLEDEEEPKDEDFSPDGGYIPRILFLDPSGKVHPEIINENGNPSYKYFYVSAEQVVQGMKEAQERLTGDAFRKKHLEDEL

O=C(c1ccc(N2CCOCC2)cc1)N1CCCC(N(Cc2ccccc2)C(=O)CCl)CC1 (centres unmarked) [BPK-29, N-benzyl-2-chloro-N-(1-(4-morpholinobenzoyl)azepan-4-yl)acetamide]
BPK-29-competed isoTOP-ABPP analysis (TXNDC12): Yes (Competed defined as showing R value ≥ 3.0 at 40 μM of test compound)
BPK-29-competed BPK-29yne analysis (PTGES2): Yes (Competed defined as showing R value ≥ 2.5 at 20 μM of test compound)
